Experimental findings from ChEMBL document CHEMBL4602732, “Optimizing Pyrazolopyrimidine Inhibitors of Calcium Dependent Protein Kinase 1 for Treatment of Acute and Chronic Toxoplasmosis” (J Med Chem, 2020) are described below.

Data set [1] has as its system Toxoplasma gondii. In words: Protection against reactivation of type 2 Toxoplasma gondii ME49 infection in sulfadiazin-treated Ifngr1-/- CD1 mouse assessed as reduction in parasite infection at 60 mg/kg, po administered twice daily via gavage for 8 days measured up to 30 days by luciferase reporter gene based bioluminescence assay. Format: functional, organism-based. (A reporter such as luciferase makes a cellular process visible.)

Data set [2] relates to Toxoplasma gondii. In words: Antiparasitic activity against type 1 Toxoplasma gondii RH tachyzoites infected in CD1 mouse assessed as reduction in parasite expansion at 15 mg/kg, po administered four times daily via gavage for 7 days by bioluminescence assay. Format: functional, organism-based.
The test system of a further data set is MDR1. Put plainly: Efflux ratio of apparent permeability across basolateral to apical side over apical to basolateral side in MDCK2-MDR1 cells at 2 uM measured after 150 mins by LC-MS/MS analysis. Format: ADME, cell-based, Canis lupus familiaris. The note with it: dog, MDCK-MDR1.
The test system of data set [3] is Toxoplasma gondii. In words: Antiparasitic activity against Toxoplasma gondii type III CTG tachyzoites infected in HFF assessed as reduction in parasite growth. Format: functional, organism-based.
Data set [4] concerns the target T1, Alpha-2A adrenergic receptor (Homo sapiens, UniProt P08913).
T1 sequence (P08913 whole entry): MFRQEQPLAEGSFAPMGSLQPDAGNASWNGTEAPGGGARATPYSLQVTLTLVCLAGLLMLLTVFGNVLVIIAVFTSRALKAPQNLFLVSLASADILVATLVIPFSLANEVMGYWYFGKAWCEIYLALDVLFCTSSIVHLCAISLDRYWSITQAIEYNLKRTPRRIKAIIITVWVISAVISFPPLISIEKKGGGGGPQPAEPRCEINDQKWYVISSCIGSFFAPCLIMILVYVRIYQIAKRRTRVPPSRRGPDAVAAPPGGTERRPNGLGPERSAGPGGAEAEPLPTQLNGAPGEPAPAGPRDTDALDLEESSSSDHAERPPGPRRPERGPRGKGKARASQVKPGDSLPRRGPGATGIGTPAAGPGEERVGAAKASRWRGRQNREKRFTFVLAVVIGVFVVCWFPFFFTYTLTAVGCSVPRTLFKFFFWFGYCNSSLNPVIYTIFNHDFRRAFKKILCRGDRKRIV
Put plainly: Antagonist activity at recombinant human Gi/Go-coupled ADRA2A expressed in CHOK1 cells assessed as reduction in UK14304-induced inhibition of forskolin-stimulated cAMP accumulation. Format: cell-based. The settings on record: cho-k1. (In general: Cyclic AMP is a second messenger, typically raised through Gs and lowered through Gi signalling.)

Data set [5] has as its system Toxoplasma gondii. Put plainly: Antiparasitic activity against type 1 Toxoplasma gondii RH tachyzoites infected in CD1 mouse assessed as reduction in parasite expansion at 60 mg/kg, po administered once daily via gavage for 7 days by bioluminescence assay. Format: functional, organism-based.
The nature of data set [6]: Ratio of drug level in central nervous system to plasma in CD1 mouse at 10 mg/kg, po administered via gavage measured after 8 hrs by LC-MS/MS analysis. Format: ADME, organism-based, CNS/Plasma. The settings on record: central nervous system and plasma.
Data set [7] has as its system Toxoplasma gondii. In words: Protection against reactivation of type 2 Toxoplasma gondii ME49 infection in sulfadiazin-treated Ifngr1-/- CD1 mouse assessed as increase in weight gain at 60 mg/kg, po administered twice daily via gavage for 21 days measured up to 30 days. Format: functional, organism-based.
Data set [8] relates to Toxoplasma gondii. Put plainly: Antiparasitic activity against type 1 Toxoplasma gondii RH tachyzoites infected in CD1 mouse assessed as reduction in mouse death at 30 mg/kg, po administered twice daily via gavage for 7 days by bioluminescence assay. Format: functional, organism-based.
The test system of data set [9] is Toxoplasma gondii. Put plainly: Antiparasitic activity against type 1 Toxoplasma gondii RH tachyzoites infected in CD1 mouse assessed as […] at 15 mg/kg, po administered four times daily via gavage for 7 days followed by lung and brain isolation on 15 days post-infection and co-culture with naive CD1 mouse. Format: functional.
Data set [10] deals with Toxoplasma gondii. Put plainly: Antiparasitic activity against type 1 Toxoplasma gondii RH tachyzoites infected in CD1 mouse assessed as reduction in parasite dissemination at 30 mg/kg, po administered twice daily via gavage for 7 days by bioluminescence assay. Format: functional, organism-based.
Data set [11] concerns Src (human) versus Toxoplasma gondii CDPK1. Put plainly: Selectivity ratio of IC50 for inhibition of human Src expressed in Escherichia coli BL21 to IC50 for inhibition of Toxoplasma gondii full-length wild-type C-terminal His-tagged CDPK1 expressed in Escherichia coli BL21(DE3)V2RpAcYc-LIC+LamP. Format: toxicity. The settings on record: read-out: Ratio IC50.
For data set [12], the system named is Toxoplasma gondii. Put plainly: Antiparasitic activity against type 1 Toxoplasma gondii RH tachyzoites infected in CD1 mouse assessed as reduction in parasite expansion at 30 mg/kg, po administered twice daily via gavage for 7 days by bioluminescence assay. Format: functional, organism-based.
For data set [13], the system named is Toxoplasma gondii. In words: Protection against reactivation of type 2 Toxoplasma gondii ME49 infection in sulfadiazin-treated Ifngr1-/- CD1 mouse assessed as reduction in mouse death at 60 mg/kg, po administered twice daily via gavage for 8 days measured up to 30 days. Format: functional, organism-based.
A short description of data set [14]: Time at which plasma concentration stays above in vitro EC50 for antiparasitic activity against 2F clone of type 1 Toxoplasma gondii RH tachyzoites expressing luciferase infected in HFF in CD1 mouse at 30 mg/kg, po. The settings on record: in vivo. Format: ADME, organism-based.
Data set [15] relates to Toxoplasma gondii. In words: Antiparasitic activity against type 1 Toxoplasma gondii RH tachyzoites infected in CD1 mouse assessed as reduction in mouse death at 60 mg/kg, po administered once daily via gavage for 7 days followed by lung and brain isolation on 15 days post-infection and co-culture with naive CD1 mouse. Format: functional, organism-based.
For data set [16], the system named is Toxoplasma gondii. Put plainly: Antiparasitic activity against type 1 Toxoplasma gondii RH tachyzoites infected in CD1 mouse assessed as reduction in mouse death at 60 mg/kg, po administered once daily via gavage for 7 days by bioluminescence assay. Format: functional, organism-based.
Data set [17] has as its system Toxoplasma gondii. In words: Antiparasitic activity against type 1 Toxoplasma gondii RH tachyzoites infected in CD1 mouse assessed as reduction in parasite dissemination at 15 mg/kg, po administered four times daily via gavage for 7 days by bioluminescence assay. Format: functional, organism-based.
Data set [18] deals with T2, ALK5 (TGF-beta receptor type-1) (Homo sapiens, UniProt P36897).
T2 sequence (P36897 whole entry): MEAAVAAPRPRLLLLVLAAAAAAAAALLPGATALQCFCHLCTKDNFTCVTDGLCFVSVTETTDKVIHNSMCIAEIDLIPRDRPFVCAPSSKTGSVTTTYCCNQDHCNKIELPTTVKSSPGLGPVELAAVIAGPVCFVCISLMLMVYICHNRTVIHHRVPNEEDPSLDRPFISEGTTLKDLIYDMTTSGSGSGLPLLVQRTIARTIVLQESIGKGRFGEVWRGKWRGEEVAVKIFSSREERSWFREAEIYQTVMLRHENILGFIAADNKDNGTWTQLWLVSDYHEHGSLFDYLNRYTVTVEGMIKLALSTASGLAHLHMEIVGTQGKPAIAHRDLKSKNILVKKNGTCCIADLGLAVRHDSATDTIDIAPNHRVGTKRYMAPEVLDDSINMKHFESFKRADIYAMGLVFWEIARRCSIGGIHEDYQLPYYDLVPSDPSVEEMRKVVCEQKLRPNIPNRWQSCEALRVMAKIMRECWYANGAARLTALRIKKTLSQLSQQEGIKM
Put plainly: Inhibition of human […] N-terminal GST-tagged ALK5 (200 to 503 residues) expressed in baculovirus expression system at 1 uM by Lanthascreen assay relative to control.

The subject of data set [19] is Toxoplasma gondii. In words: Antiparasitic activity against type 1 Toxoplasma gondii RH tachyzoites infected in CD1 mouse assessed as reduction in parasite dissemination at 60 mg/kg, po administered once daily via gavage for 7 days by bioluminescence assay. Format: functional, organism-based.
A short description of data set [20]: Protein binding in mouse brain assessed as unbound fraction. Format: ADME, tissue-based.

Molecules are shown by their SMILES. Activity calls are given as the source filed them. No cut-off for these calls is given here.

As for `Nc1ncnc2c1c(Oc1cc(C(F)(F)F)ccn1)nn2C1CC1`, the outcome in the data set on Toxoplasma gondii [1] and with Toxoplasma gondii [15] was inactive. Moreover, the outcome with Toxoplasma gondii [2], with Toxoplasma gondii [5], in the data set with Toxoplasma gondii [7], in the data set on Toxoplasma gondii [8], in the data set on Toxoplasma gondii [10] and with Toxoplasma gondii [12] was Active. The result in the data set with Toxoplasma gondii [13], in the data set with Toxoplasma gondii [16], in the data set with Toxoplasma gondii [17] and with Toxoplasma gondii [19] was Active. For the same compound, the efflux ratio at […], 2 µM in the data set with MDR1 worked out at 0.64. Besides, the EC50 in the data set on Toxoplasma gondii [3] amounted to 168 nM. The “inhibition (INH)” value in data set [4] is on record as 51%. For the same compound, the Kp at 8 h in data set [6] was determined as 0.96. Besides, the survival at 15 mg/kg in the data set on Toxoplasma gondii [9] came out at 20%. Further, in data set [11], the selectivity ratio is more than 1000. Moreover, in [14], the “T>EC50” value is 8 h. The compound further had an inhibition at 1 µM in data set [18] of more than 50%. For the same compound, in [20], the fraction unbound turned out to be 0.101.

In general, efflux ratio refers to the permeability from basolateral to apical divided by that in the opposite direction, in the common usage. Usually EC50 stands for the concentration needed to bring the measured effect to its halfway point. The Kp is the ratio of the level in a tissue or fluid to that in plasma or blood. For orientation: inhibition means the relative decrease from the control value, in per cent. The fraction unbound is the share of the substance not bound to proteins or other matrix.
